Paper PMC9704104, “Towards safer anti-inflammatory therapy: synthesis of new thymol–pyrazole hybrids as dual COX-2/5-LOX inhibitors” (Journal of Enzyme Inhibition and Medicinal Chemistry, 2022)

What was measured:
Format in all cases: biochemical
[1] = target: T1, COX-1 (Ovis aries, UniProt P05979); assay: In vitro COX-1 inhibitory assay (Cayman colorimetric COX (ovine) inhibitor screening assay kit); conditions: mean of three replicates ± SD
T1 construct: purchased Cayman chemicals 560131
T1 sequence (P05979 25-600): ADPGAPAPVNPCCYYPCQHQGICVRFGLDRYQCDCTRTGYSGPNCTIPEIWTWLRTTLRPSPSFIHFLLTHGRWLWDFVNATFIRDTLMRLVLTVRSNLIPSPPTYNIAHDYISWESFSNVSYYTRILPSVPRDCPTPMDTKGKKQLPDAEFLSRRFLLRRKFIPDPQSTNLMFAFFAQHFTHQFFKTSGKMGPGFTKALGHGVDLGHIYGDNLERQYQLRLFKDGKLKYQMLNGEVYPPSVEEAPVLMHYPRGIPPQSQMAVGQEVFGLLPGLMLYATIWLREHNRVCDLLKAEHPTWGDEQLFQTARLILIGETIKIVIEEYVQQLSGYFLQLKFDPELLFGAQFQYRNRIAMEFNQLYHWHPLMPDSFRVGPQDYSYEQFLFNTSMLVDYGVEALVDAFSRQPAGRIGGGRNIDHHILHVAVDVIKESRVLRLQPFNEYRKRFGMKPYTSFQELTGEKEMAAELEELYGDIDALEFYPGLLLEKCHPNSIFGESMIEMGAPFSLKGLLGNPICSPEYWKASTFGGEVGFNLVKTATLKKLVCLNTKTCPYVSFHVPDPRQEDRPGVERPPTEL
Protocol: (§1) (Page: S20, Supplementary file).
(§2) Anti-inflammatory activity
(§3) In vitro COX-1 and COX-2 inhibitory assay […]
(§4) supplied by Cayman chemicals, Ann Arbor, MI, USA according to reported method 1. The colorimetric COX inhibitor screening assay utilizes the peroxidase component of cyclooxygenase. The peroxidase activity was assayed calorimetrically by monitoring the appearance of oxidized N,N,N',N'-tetramethyl-1,4-phenylenediamine (TMPD) at 590nm. The appearance of reagent was carried out following the instructions […]
(§5) The half- maximal inhibitor concentrations (IC50µM) were determined and the selectivity index (SI) values were calculated as IC50 (COX-1)/IC50 (COX-2).
(§6) 1) Background wells- 160 µL of assay buffer and 10 µL of heme were added to background wells.
(§7) 2) The 100% Initial activity wells- 150 µL of assay buffer, 10 µL of heme and 10 µL of enzyme (COX-1 or COX-2) were added.
3) Inhibitor well- 150 µL of assay buffer, 10 µL of heme and 10 µL of enzyme were added.
4) 10 µL of inhibitor (3 concentrations) in DMSO was added to the inhibitor wells to yield a final […]
5) 10 µL of solvent (DMSO) was added to the 100% Initial activity wells and background wells.
7) 20 µL of colorimetric substrate solution (TMPD) was added to all wells.
8) 20 µL of arachidonic acid was added to all wells to yield a final concentration of 100 µM.
10) The absorbance was measured at 590 nm using a plate reader.
The calculations were carried out in the following manner:
(§8) 1) The average absorbance of all samples was determined.
(§9) 2) The absorbance of background wells was subtracted from absorbance of the 100% Initial activity […]
3) Percent inhibition = (100% Initial activity – Inhibitor wells/ 100% Initial activity)∗ 100 […]
Place the 96-well plate on a shaker for at least five minutes. […]

[2] = target: T2, COX-2 (Ovis aries, UniProt P79208); assay: In vitro COX-2 inhibitory assay (Cayman colorimetric COX (ovine) inhibitor screening assay kit)
T2 sequence (P79208 17-603): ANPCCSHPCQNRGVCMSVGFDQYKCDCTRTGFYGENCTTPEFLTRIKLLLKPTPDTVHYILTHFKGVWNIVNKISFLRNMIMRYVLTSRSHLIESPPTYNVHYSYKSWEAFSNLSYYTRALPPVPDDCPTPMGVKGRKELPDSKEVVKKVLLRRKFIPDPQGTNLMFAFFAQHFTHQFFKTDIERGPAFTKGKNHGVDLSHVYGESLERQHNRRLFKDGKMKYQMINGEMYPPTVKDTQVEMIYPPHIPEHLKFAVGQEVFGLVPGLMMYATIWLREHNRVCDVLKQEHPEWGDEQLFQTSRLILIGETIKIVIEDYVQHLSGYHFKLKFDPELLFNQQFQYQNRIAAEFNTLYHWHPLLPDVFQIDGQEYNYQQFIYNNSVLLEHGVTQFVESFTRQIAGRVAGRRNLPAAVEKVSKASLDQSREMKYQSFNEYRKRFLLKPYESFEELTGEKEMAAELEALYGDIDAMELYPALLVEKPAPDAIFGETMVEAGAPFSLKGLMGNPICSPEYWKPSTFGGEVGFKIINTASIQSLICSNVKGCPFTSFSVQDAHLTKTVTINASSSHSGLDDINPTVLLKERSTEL
Protocol: as §1, §2, §3, §4, §5, §6, §7
3) Inhibitor well- 150 µL of assay buffer, 10 µL of heme and 10 µL of enzyme were added. […]
10) The absorbance was measured at 590 nm using a plate reader. […]
as §8, §9
7) Remove the cover and read the absorbance at 490-500 nm using a plate reader. […]
(§10) 2) The absorbance of blank wells was subtracted from absorbance of the 100% Initial activity and the […]

[3] = system: 5-LOX; assay: In vitro 5-LOX inhibitory assay (Abnova 5-LOX inhibitor screening assay kit)
Text: The newly synthesised compounds were screened for their ability to inhibit 5-LOX enzymes. […] (Page: S21, Supplementary file). […]
In vitro LOX inhibitory assay
Inhibitor Screening Assay Kit detects and measures the hydroperoxides produced in the lipoxygenation reaction using a purified LOX. The detection reaction is equally sensitive to hydroperoxides at various positions within the fatty acid and will work with fatty acids of any carbon length. It is thus a general detection method for 5-LOX and can be used to screen libraries of compounds for those which inhibit 5 -LOX enzymes.
1) Blank Wells- add 100 µL of assay buffer to at least two wells.
2) Positive Control Wells- Lipoxygenase (15-LO standard) add 90 µL 15-LO and 10 µL of assay buffer […]
3) 100% Initial Activity Wells- add 90 µL 15-LO and 10 µL of solvent (DMSO) (the same solvent to dissolve the inhibitor) to two wells. The 100% initial activity wells should result in approximately 10 […]
4) Inhibitor Wells- add 90 µL of sample and I10 µL of inhibitor to two wells.
5) Initiate the reaction by adding 10 µL of substrate (either arachidonic acid or linoleic acid) to all the wells. Place the 96-well plate on a shaker for at least five minutes.
6) Add 100 µL of chromogen to each well to stop enzyme catalysis and develop the reaction. Cover with a plate cover and place the 96-well plate on a shaker for at least five minutes.
7) Remove the cover and read the absorbance at 490-500 nm using a plate reader.
Inhibitors were dissolved in DMSO. The inhibitors were added to the assay in a final volume of 10 µL before initiating with substrate. Three concentrations were prepared (25, 50 and 100 µM) to determine the concentration produced 50% enzyme inhibition.
as §10

Structure (SMILES): Cc1ccc(C(C)C)c(O)c1C=NNC(=O)c1cc(-c2ccccc2)n(-c2ccccc2)n1 [Compound 8d, N'-(2-Hydroxy-3-isopropyl-6-methylbenzylidene)-1,5-diphenyl-1H-pyrazole-3-carbo-hydrazide]
- IC50 [1]: 10.19 ± 0.036 µM
- Selectivity index ([2]; SI = COX-1 IC50/COX-2 IC50): 92.6
- IC50 ([2]; mean of three replicates ± SD): 0.11 ± 0.007 µM
- IC50 [3]: 3.11 ± 0.046 µM
